Experimental data published in patent US20220411414A1, “INHIBITORS FOR THE B-CATENIN/B-CELL LYMPHOMA 9 (BCL9) PROTEIN-PROTEIN INTERACTION” (H. LEE MOFFITT CANCER CENTER AND RESEARCH INSTITUTE, INC., priority 2018, published 2022).

Experiments:
β-catenin/BCL9 = target: T1, β-catenin/BCL9 (Homo sapiens, UniProt P35222); assay: AlphaScreen competitive inhibition assay, β-catenin/BCL9 PPI; assay type: binding; conditions: for Ki: AlphaScreen
T1 construct: Full-length β-catenin and (residues 1-781) were cloned into a pET-28b vector carrying a C-terminal 6× histidine; made in house; host or cells: E. coli BL21 DE3
T1 sequence (P35222 1-781): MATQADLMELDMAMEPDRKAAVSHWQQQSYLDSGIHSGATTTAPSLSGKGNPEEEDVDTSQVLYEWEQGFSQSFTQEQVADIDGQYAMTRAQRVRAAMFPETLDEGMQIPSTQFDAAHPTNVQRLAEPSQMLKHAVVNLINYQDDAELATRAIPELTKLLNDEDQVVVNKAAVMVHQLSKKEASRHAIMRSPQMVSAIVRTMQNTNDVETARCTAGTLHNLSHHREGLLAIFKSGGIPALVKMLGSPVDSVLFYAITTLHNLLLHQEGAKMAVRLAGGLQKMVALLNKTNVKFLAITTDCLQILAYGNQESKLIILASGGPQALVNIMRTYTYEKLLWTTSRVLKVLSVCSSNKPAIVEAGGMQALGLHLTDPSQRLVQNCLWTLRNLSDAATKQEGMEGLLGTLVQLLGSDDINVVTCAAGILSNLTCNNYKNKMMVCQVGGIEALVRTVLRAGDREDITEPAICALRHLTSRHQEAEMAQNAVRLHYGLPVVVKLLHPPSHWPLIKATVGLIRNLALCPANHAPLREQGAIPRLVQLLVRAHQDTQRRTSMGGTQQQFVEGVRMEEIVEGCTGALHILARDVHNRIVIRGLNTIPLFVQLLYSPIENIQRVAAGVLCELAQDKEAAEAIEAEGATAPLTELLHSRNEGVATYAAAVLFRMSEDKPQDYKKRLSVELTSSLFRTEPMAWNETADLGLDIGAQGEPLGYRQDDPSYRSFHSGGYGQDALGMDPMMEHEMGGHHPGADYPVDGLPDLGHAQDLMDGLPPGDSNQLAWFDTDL
Text: The biochemical AlphaScreen assay was employed to evaluate the inhibitory potency of these two final products for disruption of the β-catenin/BCL9 PPI.
(§1) BCL9 peptide synthesis and purification. Human BCL9 (residues 350-375), N-terminally biotinylated human BCL9 (residues 350-375), human E-cadherin (residues 824-877), and N-terminally biotinylated human E-cadherin (residues 824-877) were synthesized by InnoPep Inc. (San Diego, Calif., www.innopep.com). All synthesized peptides were purified by HPLC with purity >95%. The structures were validated by LC/MS. The sequences are as follows (Ahx, 6-aminohexanoic acid).
For the β-catenin/BCL9 assay, 5 nM of biotinylated BCL9 and 40 nM of His6-tagged β-catenin were incubated in assay buffer at 4° C. for 30 min. For the β-catenin/E-cadherin assay, 10 nM of biotinylated human E-cadherin, and 40 nM of His6-tagged human β-catenin were added and incubated in assay buffer at 4° C. for 30 min. Different concentrations of the tested peptide or inhibitor were added and incubated in 20 μL assay buffer at 4° C. for another 1.5 h. All of the above assay plates were covered and gently mixed on an orbital shaker. The donor and acceptor beads were then added to the plates to a final concentration of 10 μg/mL in 25 μL assay buffer. The mixture was incubated for 1 h at 4° C. before detection. The IC50 value was determined by nonlinear least-square analysis of GraphPad Prism 5.0. The inhibition constant (Ki) values were derived from the IC50 values using a method reported by Nikolovska-Coleska et al (Nikolovska-Coleska, Z.; Wang, R.; Fang, X.; Pan, H.; Tomita, Y.; Li, P.; Roller, P. P.; Krajewski, K.; Saito, N. G.; Stuckey, J. A.; Wang, S. Development and optimization of a binding assay for the XIAP BIR3 domain using fluorescence polarization, Anal. Biochem. 2004, 332, 261-273.). The assays were conducted under the conditions required by Nikolovska-Coleska et al.'s equation for determining the Ki values. All of the experiments were performed in triplicate. The results were expressed as mean±standard deviation. The inhibitor selectivity for, β-catenin/BCL9 over, β-catenin/E-cahderin interactions was defined as the ratio of the respective Ki value of β-catenin/E-cadherin interactions over that of β-catenin/BCL9 interactions.

β-catenin/E-cadherin = target: T2, β-catenin/E-cadherin (Homo sapiens, UniProt P35222); assay: AlphaScreen selectivity assay, β-catenin/E-cadherin PPI; assay type: binding; conditions: Table 2, read-out: Ki ± SD β-catenin/E-cadherin
T2 construct: Full-length β-catenin and (residues 1-781) were cloned into a pET-28b vector carrying a C-terminal 6× histidine; made in house; host or cells: E. coli BL21 DE3
T2 sequence (P35222 1-781): T1 sequence (P35222 1-781)
Text: Compounds 4 and 5 were further evaluated with their selectivities for the disruption of β-catenin/BCL9 over β-catenin/E-cadherin interactions using the AlphaScreen selectivity assay (Zhang, M.; Wisniewski, J. A.; Ji, H AlphaScreen selectivity assay for, β-catenin/B-cell lymphoma 9 inhibitors. Anal. Biochen. 2015, 469, 43-53.).
as §1, with “The structures were validated by LC/MS. The sequences are as follows (Ahx, 6-aminohexanoic acid).” left out
For the β-catenin/BCL9 assay, 5 nM of biotinylated BCL9 and 40 nM of His6-tagged β-catenin were incubated in assay buffer at 4° C. for 30 min. […] The IC50 value was determined by nonlinear least-square analysis of GraphPad Prism 5.0. The inhibition constant (Ki) values were derived from the IC50 values using a method reported by Nikolovska-Coleska et al (Nikolovska-Coleska, Z.; Wang, R.; Fang, X.; Pan, H.; Tomita, Y.; Li, P.; Roller, P. P.; Krajewski, K.; Saito, N. G.; Stuckey, J. A.; Wang, S. Development and optimization of a binding assay for the XIAP BIR3 domain using fluorescence polarization, Anal. Biochem. 2004, 332, 261-273.). […] The results were expressed as mean±standard deviation. […]

A549 = assay: MTs growth inhibition assay, A549 (Wnt-latent); assay type: cell-based; conditions: Homo sapiens, read-out: MTs IC50 ± SD A549
[1] = system: TOPFlash (three wild-type Tcf binding sites) luciferase reporter; assay: Wnt-responsive TOPFlash luciferase reporter assay, β-catenin-activated HEK239; assay type: cell-based; conditions: 24 h treatment, read-out: TOPFlash IC50 ± SD β-catenin-activated HEK239
Experimental: (§2) The TOPFlash luciferase reporter assay (in which the luciferase reporter has three wild-type Tcf4 binding sites) was performed with 4 and 5. Cell transfection and luciferase assay. FuGENE6 (E269A, Promega) 96 well plate format was used for the transfection of HEK293 and SW480 cells according to the manufacturer's instruction. HEK293 cells were co-transfected with 45 ng of TOPFlash or FOPFlash reporter gene, 135 ng pcDNA3.1-β-catenin, and 20 ng of pCMV-RL normalization reporter gene. SW480 cells were co-transfected with 60 ng of the TOPFlash or FOPFlash reporter gene and 40 ng of pCMV-RL normalization reporter. Cells were cultured in DMEM and 10% FBS at 37° C. for 24 h, and different concentrations of inhibitors or DMSO was added. After 24 h, the luciferase reporter activity was measured using the Dual-Glo system (E2940, Promega). Normalized luciferase activity in response to the treatment with 4 and 5 was compared with that obtained from the cells treated with DMSO. Experiments were performed in triplicate.

[2] = system: TOPFlash (three wild-type Tcf binding sites) luciferase reporter; assay: Wnt-responsive TOPFlash luciferase reporter assay, SW480; assay type: cell-based; conditions: Homo sapiens, 24 h treatment, read-out: TOPFlash IC50 ± SD SW480
Experimental: as §2

[3] = system: FOPFlash (three mutant Tcf4 binding sites) luciferase reporter; assay: FOPFlash luciferase reporter assay; assay type: cell-based; conditions: FIG. 1
Experimental: as §2, with “Cell” for “The TOPFlash luciferase reporter assay (in which the luciferase reporter has three wild-type Tcf4 binding sites) was performed with 4 and 5. Cell”

[4] = target: T3, β-catenin/BCL9 interaction (Homo sapiens, UniProt P35222); conditions: literature; cited from earlier work
T3 sequence (P35222 1-781): T1 sequence (P35222 1-781)

Wnt target genes = conditions: literature; cited from earlier work
activated β-catenin = target: T4, activated β-catenin (Homo sapiens, UniProt P35222); conditions: literature; cited from earlier work
T4 sequence (P35222 1-781): T1 sequence (P35222 1-781)

Structure (SMILES) | selectivity for β-catenin/BCL9 over β-catenin/E-cadherin PPIs (in words) (β-catenin/BCL9; AlphaScreen biochemical assay) | Ki (β-catenin/BCL9; Table 1, mean ± SD (n = 3)) [µM] | Ki (β-catenin/BCL9; Table 2, mean ± SD (n = 3)) [µM] | Selectivity BCL9/cadherin (β-catenin/BCL9; ratio of Ki β-catenin/E-cadherin over Ki β-catenin/BCL9) | Ki (β-catenin/E-cadherin) [µM] | IC50 (A549) [µM] | IC50 [1] [µM] | IC50 [2] [µM] | FOPFlash luciferase activity [3] | disruption of the β-catenin/BCL9 interaction [4] | transcription of Wnt target genes / β-catenin-dependent transcription (Wnt target genes) | destabilization of activated β-catenin (activated β-catenin)
Cl.Cl.O=C(Nc1ccc(O[C@@H]2CCNC2)c(-c2cccc(-c3nn[nH]n3)c2)c1)c1ccc(O[C@H]2CCNC2)c(-c2ccc3ccsc3c2)c1 [Compound 5, (R)-3-((5-(3-(benzo[b]thiophen-6-yl)-4-(((S)-pyrrolidin-1-ium-3-yl)oxy)benzamido)-3′-(2H-tetrazol-5-yl)-[1,1′-biphenyl]-2-yl)oxy) pyrrolidin-1-ium chloride] | exceptionally high selectivity | 1.6 ± 0.23 | 1.6 ± 0.23 | >570 | > 915 | > 400 | 50 ± 5.2 | 43 ± 3.4 | did not inhibit |  |  | 
CC(C)c1cc2c(c(O)c1O)[C@@]1(C(=O)O)CCCC(C)(C)[C@@H]1CC2 [carnosic acid] |  |  |  |  |  |  |  |  |  | can disrupt the β-catenin/BCL9 interaction | inhibit | destabilize
